# According to patent publication US7629502B2, “Non-antibiotic selection marker genes” (Academia Sinica, priority 2006, dated 2009):
# “Also recorded” adds a separate entry of the source.
# Key:
# Type in all cases: in vivo, Arabidopsis thaliana
# wild-type Arabidopsis [1] = assay: Seedling survival of wild-type Arabidopsis on medium with 5MT or CdCl2; conditions: for seedling survival rate: WT, surviving/seeds; for survival of wild type / non-transformed plants: medium containing 75 μM 5MT or 300 μM CdCl2; for optimum concentration for the selection of putative transformants: wild-type versus transgenic seedlings
# Experimental: (§1) Arabidopsis thaliana (L.) Hyen. ecotype Columbia was grown in controlled environment chambers at 24° C., 70% relative humidity, with 24 h photoperiod (about 120 μmol m^−2s^−1). To transform Arabidopsis plants, we used the floral dip method described previously (Clough and Bent, 1998). To transgenic plants constitutively expressing AtTSB1, were selected on MS medium with 20 ppm hygromycin (Murashige and Skoog 1962). The sensitivity of wild type and transgenic T2 homozygous seeds (T3 generation) to different concentrations of 5MT and CdCl2 were assessed on the basis of the germination percentage of seedlings at the end of 2 weeks. After standardizing the optimal selection concentration of 5MT and CdCl2, the floral dip transformation was again performed to evaluate the selection efficiency between TSB1 and conventional hydromycin selection systems.
# (§2) Different concentrations of 5MT (0, 25, 50, 75, 100 and 200 μM) and CdCl2 (0, 50, 100, 200, 300, 400 and 500 μM) were evaluated in order to select the transformants constitutively expressing AtTSB1 gene and in these experiments untransformed wild-types used as negative control. Sixty seeds of each wild-type and transgenic seeds were germinated on medium containing various concentrations of 5MT for 2 weeks, and the number of surviving plants recorded (Table 1). Under all the tested conditions, both wild-type and transgenic seeds could germinate almost equally. […] In the meantime, all seedlings on medium containing less than 50 μM 5MT survived selection even after 2 weeks. Thus, 75 μM 5MT is the optimum concentration for the selection of putative transformants.
# (§3) A total of one hundred seeds each of wild-type and transgenic plants were germinated on medium containing different concentrations of CdCl2, for 2 weeks, and the survival was recorded (Table 2). The germination rate in wild-type and transgenic seedlings was almost equal on the medium containing CdCl2 concentrations up to 300 μM. […] All the wild-type and transgenic seedlings survived even after 2 weeks on medium containing CdCl2 less than 100 μM. From these observations, we concluded that 300 μM CdCl2 is the optimal concentration needed for selecting putative transformants.
# [2] = tested on: AtTSB1 transgenic Arabidopsis (TH); assay: Seedling survival of AtTSB1 transgenic (TH) Arabidopsis on medium with 5MT or CdCl2; conditions: for seedling survival rate: TH, 2 weeks, surviving/seeds; for survival / growth of transgenic plants: medium containing 75 μM 5MT or 300 μM CdCl2
# Experimental: as §1, §2, §3
# wild-type plants = assay: Free Trp content analysis (GC-MS), wild-type plants
# Experimental: (§4) Two-week old wild-type and transgenic plants were harvested from germination medium with or without 50 μM 5MT. Endogenous free tryptophan analysis was performed described previously (Edlund et al., 1995) with some modification. Cell extracts were prepared from approximately 50 mg dry weight. Frozen tissues were ground with methanol under continuous shaking for 24 h at 4° C. After centrifuged, the supernatant was filtered by 0.22 μm membrane (Millipore Millexg). The filtered solution was reduced to 1 ml in a Speed Vac concentrator. The final solution was extracted by SEP column (Water Oasis HLB6 cc) and use 1 ml methanol to elute the extracts. Each 100 μl sample was methylated with 160 μl pyridine and 40 μl […]-N-trimethylsilyl-trifuoroacetamide at 70° C. for 1 hr. The GC-MS analysis was performed according to conditions described by Edlund et al (Edlund et al., 1995).
# (§5) To elucidate the possible relation between the accumulation of free Trp content and resistance to 5MT and CdCl2, free Trp content was measured in AtTSB1 transgenic plants. […] The level in the transgenic plants TM1, TM3 and TM4 was 10- to 15-fold higher (5,900-8,900 pmole/g dry weight) than in wild-type plants (587 pmole/g dry weight). […] A similar trend was observed when TC3, TC4 and TC5 transgenic plants were measured for Trp content, with or without CdCl2.
# [3] = tested on: AtTSB1 transgenic plants (TM1, TM3, TM4); assay: Free Trp content analysis (GC-MS), TSB transgenic plants; conditions: for Endogenous contents of tryptophan: two-week old plants
# Experimental: as §4, §5
# wild-type Arabidopsis [4] = assay: Seedling survival of wild-type Arabidopsis on medium with 5MT or CdCl2; conditions: WT, 1 week, surviving/seeds
# [5] = tested on: AtTSB1 transgenic Arabidopsis (TH); assay: Seedling survival of AtTSB1 transgenic (TH) Arabidopsis on medium with 5MT or CdCl2; conditions: for seedling survival rate: TH, surviving/seeds
smiles,measurement,setting,value
"Cc1ccc2[nH]cc(C[C@H](N)C(=O)O)c2c1 [5MT, 5-methyl-tryptophan]",growth of wild-type plants,"wild-type Arabidopsis [1]; 75 μM and higher (100 and 200 μM) 5MT, after 2 weeks",turned pale green and ceased to grow
same,seedling survival rate,"wild-type Arabidopsis [1]; 5MT 25 μM, 1 week",60/60
same,seedling survival rate,"wild-type Arabidopsis [1]; 5MT 25 μM, 2 weeks",24/60
same,seedling survival rate,"wild-type Arabidopsis [1]; 5MT 50 μM, 1 week",60/60
same,seedling survival rate,"wild-type Arabidopsis [1]; 5MT 50 μM, 2 weeks",10/60
same,seedling survival rate,"wild-type Arabidopsis [1]; 5MT 75 μM, 2 weeks",0/60
same,seedling survival rate,"wild-type Arabidopsis [1]; 5MT 100 μM, 2 weeks",0/60
same,seedling survival rate,"wild-type Arabidopsis [1]; 5MT 200 μM, 1 week",12/60
same,seedling survival rate,"wild-type Arabidopsis [1]; 5MT 200 μM, 2 weeks",0/60
same,survival of wild type / non-transformed plants,wild-type Arabidopsis [1],did not survive; also recorded: deteriorated
same,optimum concentration for the selection of putative transformants,wild-type Arabidopsis [1]; 2 weeks,75 µM
same,seedling survival rate,[2]; 5MT 25 μM,60/60
same,seedling survival rate,[2]; 5MT 100 μM,34/60
same,survival / growth of transgenic plants,[2],grew and survived
same,survival rate,"[2]; transgenic seedlings, 75 μM 5MT",100%
same,Endogenous contents of tryptophan,"wild-type plants; wild type + 5MT 50 μM, two-week old plants",125 ± 6 pmole/g g · DW
same,level of free Trp,"wild-type plants; wild-type plants, 5MT in the medium",125 pmole/g dry weight
same,reduction of the level of free Trp,"wild-type plants; wild-type plants, 5MT in the medium versus without",fivefold
same,Endogenous contents of tryptophan,[3]; TM1 + 5MT 50 μM,"5,200 ± 14 pmole/g g · DW"
same,Endogenous contents of tryptophan,[3]; TM3 + 5MT 50 μM,"5,100 ± 11 pmole/g g · DW"
same,Endogenous contents of tryptophan,[3]; TM4 + 5MT 50 μM,"7,200 ± 10 pmole/g g · DW"
same,level of free Trp,"[3]; transgenic plants TM1, TM3 and TM4, 5MT in the medium","5,100-7,200 pmole/g dry weight"
same,seedling survival rate,wild-type Arabidopsis [4]; 5MT 75 μM,60/60
same,seedling survival rate,wild-type Arabidopsis [4]; 5MT 100 μM,25/60
same,seedling survival rate,"[5]; 5MT 50 μM, 1 week",40/40
same,seedling survival rate,"[5]; 5MT 50 μM, 2 weeks",60/60
same,seedling survival rate,"[5]; 5MT 75 μM, 1 week",60/60
same,seedling survival rate,"[5]; 5MT 75 μM, 2 weeks",60/60
same,seedling survival rate,"[5]; 5MT 100 μM, 1 week",60/60
same,seedling survival rate,"[5]; 5MT 200 μM, 1 week",60/60
same,seedling survival rate,"[5]; 5MT 200 μM, 2 weeks",18/60
same,resistance of transgenic seedlings,[5]; all concentrations of 5MT tested (100 and 200 μM),showed resistance
[Cl][Cd][Cl] [CdCl2],seedling survival rate,"wild-type Arabidopsis [1]; CdCl2 50 μM, 1 week",100/100
same,seedling survival rate,"wild-type Arabidopsis [1]; CdCl2 50 μM, 2 weeks",100/100
same,seedling survival rate,"wild-type Arabidopsis [1]; CdCl2 100 μM, 1 week",100/100
same,seedling survival rate,"wild-type Arabidopsis [1]; CdCl2 100 μM, 2 weeks",100/100
same,seedling survival rate,"wild-type Arabidopsis [1]; CdCl2 200 μM, 2 weeks",30/100
same,seedling survival rate,"wild-type Arabidopsis [1]; CdCl2 300 μM, 2 weeks",0/100
same,seedling survival rate,"wild-type Arabidopsis [1]; CdCl2 400 μM, 2 weeks",0/100
same,seedling survival rate,"wild-type Arabidopsis [1]; CdCl2 500 μM, 1 week",8/100
same,seedling survival rate,"wild-type Arabidopsis [1]; CdCl2 500 μM, 2 weeks",0/100
same,survival of wild type / non-transformed plants,wild-type Arabidopsis [1],did not survive; also recorded: deteriorated
same,optimum concentration for the selection of putative transformants,wild-type Arabidopsis [1]; 2 weeks,300 µM
same,growth of transgenic plants,"[2]; 300 μM CdCl2, after 2 weeks",slightly inhibited
same,seedling survival rate,[2]; CdCl2 100 μM,100/100
same,seedling survival rate,[2]; CdCl2 200 μM,95/100
same,seedling survival rate,[2]; CdCl2 300 μM,98/100
same,seedling survival rate,[2]; CdCl2 500 μM,62/100
same,survival / growth of transgenic plants,[2],grew and survived
same,seedling survival rate,wild-type Arabidopsis [4]; CdCl2 200 μM,100/100
same,seedling survival rate,wild-type Arabidopsis [4]; CdCl2 300 μM,80/100
same,seedling survival rate,wild-type Arabidopsis [4]; CdCl2 400 μM,12/100
same,transgenic seedlings greener than controls,"[5]; 300 μM CdCl2, after 2 weeks",98%
same,seedling survival rate,"[5]; CdCl2 50 μM, 1 week",100/100
same,seedling survival rate,"[5]; CdCl2 50 μM, 2 weeks",100/100
same,seedling survival rate,"[5]; CdCl2 100 μM, 1 week",100/100
same,seedling survival rate,"[5]; CdCl2 200 μM, 1 week",100/100
same,seedling survival rate,"[5]; CdCl2 300 μM, 1 week",100/100
same,seedling survival rate,"[5]; CdCl2 400 μM, 1 week",100/100
same,seedling survival rate,"[5]; CdCl2 400 μM, 2 weeks",80/100
same,seedling survival rate,"[5]; CdCl2 500 μM, 1 week",100/100
